# Experimental data published in patent US8119116B2, “Therapeutics for cancer using 3-bromopyruvate and other selective inhibitors of ATP production” (John Hopkins University School of Medicine, priority 2001, dated 2012).
# Legend:
# VX2 tumor slices = assay: Glycolysis (lactic acid formation) in VX2 tumor slices; type: cell-based, rabbit
# Procedure: Glycolysis was assayed by monitoring the formation of lactic acid following the addition of glucose to a medium containing VX2 tumor slices. Specifically, freshly excised tumors were washed 3 times at 4° C. in 20 ml Chance Hess Medium containing 6.2 mM KCl, 154 mM NaCl, and 11 mM NaPi, pH 7.4. Slices, 1 g each, were then prior incubated for 30 min in a Lab-Line incubator-shaker at 37° C. in 2 ml of the same medium while shaking at 50 rpm. Glucose was then added to give a final concentration of 6 mM, after which the incubation/shaking process was continued with 0.2 ml samples being removed every 30 min for up to 2 h. These samples were subjected to centrifugation at 14,000 rpm in an Eppendorf Centrifuge (Model 5415C). Then, aliquots of the supernatant, 0.01 ml, were removed from each sample, diluted with 0.03 ml of water and subjected to lactic acid determination using the kit supplied by Sigma. The latter contains, in addition to lactic dehydrogenase and NAD+, hydrazine, and glycine buffer, pH 9.2. The mixture was incubated for 30 min at 25° C. after which the absorbance due to formation of NADH was determined at 340 nm using a Gilford Model 260 spectrophotometer. To assess the elevation of the glycolytic activity of the VX2 tumor over that of liver tissue, parallel studies were always carried out in an identical manner with 1 g liver slices derived from the host liver. Finally, in those cases where agents were tested for their capacity to inhibit glycolysis, these were introduced into the system at the prior incubation step with all subsequent steps being run in parallel with those described above for the VX2 tumor or liver alone.
# The screen included the following 9 compounds: 2-deoxyglucose (2DOG), 2-fluoro-2-deoxyglucose, 6-fluoro-6-deoxyglucose, 3-O-methyl glucose, 5-thio-D-glucose-6-phosphate, L-glucose, D-xylose, D-lyxose, and 3-bromopyruvic acid (3BrPA). The screen was conducted by incubating VX2 tumor slices in a medium containing 6 mM glucose with 6 mM of each of these agents at 37° C. for 5 h. The use of 6 mM glucose in the medium was used to mimic the maximal amount of glucose that might be in the blood in a real in vivo situation.
# With the above preliminary data at hand, only two of the 9 compounds screened were studied in more detail. One was 2DOG because under certain conditions it is known to inhibit glycolysis when it is phosphorylated by hexokinase to 2DOG-6-P which cannot be further metabolized. The other compound tested in more detail was 3BrPA because of its effectiveness as a glycolytic inhibitor in the preliminary screen.
# [1] = system: hexokinase bound to the mitochondrial fraction of the VX2 tumor; assay: Hexokinase activity of the VX2 tumor mitochondrial fraction; type: biochemical, rabbit; conditions: 5 mM, VX2 tumor mitochondria
# Procedure: (§1) The freshly isolated liver or VX2 tumor tissues (15-20 g wet weight) was rinsed in 3 volumes of H-medium (210 mM D-mannitol, 70 mM sucrose, 2 mM Hepes, and 0.05% bovine albumin, pH 7.4) at 4° C. and minced with a razor blade as finely as possible. A 30% (V/V) suspension was made using ice-cold H-medium in a Potter-Elvehjem glass homogenizer (55 ml capacity), and homogenization was achieved by applying 4 complete up and down strokes through the suspension with a rotating (˜400 rpm), serrated, teflon pestle attached to a motor. To remove cell debris and nuclei, the resultant homogenate was diluted to twice the initial volume and centrifuged at 630×g for 8 minutes at 4° C. in a Sorvall RC-2B centrifuge using a GSA rotor. The supernatant was removed and then centrifuged at 6,800 g for 15 min under the same conditions. The resultant supernatant was saved and referred to here as the cytosolic faction. The pellet was resuspended in the initial volume of H-medium and centrifuged twice at 9,800×g for 15 min at 4° C. The washed pellet represents the mitochondrial fraction.
# The assay coupled the glucose-6-phosphate formed in the hexokinase reaction to the glucose-6-phosphate dehydrogenase reaction. Here, NADP+, oxidizes glucose-6-phosphate to a g-lactone while becoming reduced to NADPH, thus allowing the formation of the latter to be monitored spectrophotometrically at 340 nm. […]
# [2] = system: rabbit VX2 tumor mitochondria; assay: Mitochondrial respiration (oxygen consumption); type: biochemical; conditions: 1.2 mM
# Procedure: as §1, with “The pellet was resuspended in the initial volume of H-medium and centrifuged twice at 9,800×g for 15 min at 4° C. The washed pellet represents the mitochondrial fraction.” left out
# Oxygen consumption rates were measured polarographically using a Clark oxygen electrode inserted into a 2.5 ml chamber equipped with a magnetic stirrer. […] The loss of oxygen was monitored in a 2.1 ml system at 25° C. containing 1 mg mitochondria, 0.5 mM EDTA, 2.0 mM Hepes, 220 mM D-mannitol, 70 mM sucrose, 2.5 mM KPi, 2.6 mM MgCl2, and 0.5 mg/ml bovine albumin, and, where indicated, 7.8 mM succinate (respiratory substrate), and 0.24 mM ADP (ATP synthesis substrate). […]
# [3] = system: rabbits harboring liver implanted VX2 tumors; assay: Systemic delivery via marginal ear vein, animal toxicity; type: in vivo, rabbit; conditions: 25 ml, 0.5 mM via a marginal ear vein
# Procedure: Normal tissues and tumors were fixed in 10% formalin, sliced at […] intervals for gross examination, and then embedded completely in paraffin after which […] sections were stained with hemotoxylin and eosin. Tumor viability was estimated by visual inspection and expressed as a percentage of viable tumor area for each slice. The overall percentage of viable tumor in each rabbit was calculated.
# Finally, it was important to examine the effect of 3-BrPA when delivered systemically (i.e., via the general circulation) on both animal toxicity and its capacity to damage liver implanted tumors.
smiles,measurement,setting,value
"O=C(O)C(=O)CBr [3BrPA, 3-bromopyruvic acid]",inhibition of VX2 tumor glycolysis in the limited screen,"VX2 tumor slices; 6 mM agent, 6 mM glucose, 37° C., 5 h",almost completely inhibited
same,IC50,"VX2 tumor slices; Oryctolagus cuniculus, 0.5 h, read-out: half maximal inhibition of glycolysis",2400 µM
same,concentration for maximal or complete inhibition of glycolysis,"VX2 tumor slices; VX2 tumor slices, agent prior incubated 30 min at 37° C.",about 15 mM
same,inhibition of the hexokinase reaction,[1],inhibits completely
same,inhibition of mitochondrial respiration (basal succinate rate and ADP stimulated rate),[2],completely inhibits
same,animal behavior,[3],normal behavior
same,histological examination of 9 major tissues,[3]; 4 days,no obvious damage
